Columns and labels:
[1] = system: Septoria tritici (SEPTTR); assay: 3-day curative test (3DC) vs. leaf blotch of wheat; type: in vivo; details: Zymoseptoria tritici, read-out: % DC Obs (percent disease control observed); for pest or weed control at 1.5 g/ha: application rate 1.5 g ai/Ha, SC formulation, track sprayer; for pest or weed control at 0.2 ppm: application rate 0.2 ppm
Description: (§1) Evaluation of Curative and Protectant Activity of Fungicide Mixtures vs. Leaf Blotch of Wheat (Mycosphaerella graminicola; anamorph: Septoria tritici; Bayer code: SEPTTR)
(§2) Wheat plants (variety Yuma) were grown from seed in a greenhouse in plastic pots with a surface area of 27.5 square centimeters (cm2) containing 50% mineral soil/50% soil-less Metro mix, with 8-12 seedlings per pot. The plants were employed for testing when the first leaf was fully emerged, which typically took 7 to 8 days after planting. Test plants were inoculated with an aqueous spore suspension of Septoria tritici either 3-days prior to (3-day curative test; 3DC) or 1-day after fungicide treatments (1-day protectant test; 1DP). After inoculation the plants were kept at 100% relative humidity (one day in a dark dew chamber followed by two days in a lighted mist chamber) to permit spores to germinate and infect the leaf. The plants were then transferred to a greenhouse until disease symptoms were fully expressed.
(§3) For the mixture studies with compound of Formula IA: Treatments consisted of fungicides, including a compound of Formula IA, epoxiconazole, prothioconazole, azoxystrobin, pyraclostrobin, penthiopyrad, isopyrazam, bixafen, boscalid, prochloraz, chlorothalonil, and isobutyric acid (3S,6S,7R,8R)-8-benzyl-3-[(3-isobutyryloxymethoxy-4-methoxypyridine-2-carbonyl)-amino]-6-methyl-4,9-dioxo-[1,5]dioxonan-7-yl ester (compound A), applied either individually or as two-way mixtures with a compound of Formula IA. Technical grades of materials were dissolved in acetone to make stock solutions, which were then used to perform three-fold dilutions in acetone either for each individual fungicide component or for the two-way mixtures. Desired fungicide rates were obtained after mixing dilutions with nine volumes of water containing 110 parts per million (ppm) Triton X-100. Ten mL fungicide solutions were applied onto six pots of plants using an automated booth sprayer, which utilized two 6218-1/4 JAUPM spray nozzles operating at 20 pounds per square inch (psi) set at opposing angles to cover both leaf surfaces. All sprayed plants were allowed to air dry prior to further handling. Control plants were sprayed in the same manner with the solvent blank.
(§4) For the mixture studies with compound of Formula IB: Compound IB and the compound B or their two-way mixtures were diluted in three-fold series using suspension concentrate (SC) formulations in 0.1% Trycol 5941. Spray solutions were applied onto plants using a track sprayer with an application volume of 200 Liters/hectare (L/Ha).
(§5) When disease reached 80 to 100% on the control plants, infection levels were assessed on treated plants visually and scored on a scale of 0 to 100 percent. Percentage of disease control was then calculated using the ratio of disease on treated plants relative to control plants.
(§6) Colby's equation was used to determine the fungicidal effects expected from the mixtures. (See Colby, S. R. Calculation of the synergistic and antagonistic response of herbicide combinations. Weeds 1967, 15, 20-22.)
(§7) The following equation was used to calculate the expected activity of mixtures containing two active ingredients, A and B:
(§8) A=observed efficacy of active component A at the same concentration as used in the mixture;
(§9) B=observed efficacy of active component B at the same concentration as used in the mixture.

[2] = system: Septoria tritici (SEPTTR); assay: 1-day protectant test (1DP) vs. leaf blotch of wheat; type: in vivo; details: Zymoseptoria tritici, read-out: % DC Obs (percent disease control observed); for pest or weed control at 1.5 g/ha: application rate 1.5 g ai/Ha, SC formulation, track sprayer; for pest or weed control at 0.2 ppm: application rate 0.2 ppm
Description: as §1, §2, §3, §4, §5, §6, §7, §8, §9

[3] = 3DC SEPTTR, application rate 0.6 ppm
[4] = 3DC SEPTTR, application rate 1.8 ppm
[5] = 3DC SEPTTR, application rate 5.6 ppm
[6] = 1DP SEPTTR, application rate 0.6 ppm
[7] = 1DP SEPTTR, application rate 1.8 ppm
[8] = 1DP SEPTTR, application rate 5.6 ppm

`COc1ccnc(C(=O)N[C@H]2COC(=O)[C@H](Cc3ccccc3)[C@@H](OC(=O)C(C)C)[C@H](C)OC2=O)c1OCOC(=O)C(C)C` [A, Isobutyric acid (3S,6S,7R,8R)-8-benzyl-3-[(3-isobutyryloxymethoxy-4-methoxy-pyridine-2-carbonyl)-amino]-6-methyl-4,9-dioxo-[1,5]dioxonan-7-yl ester] showed a pest or weed control at 0.45 ppm [1] of 22%, a pest or weed control at 1.35 ppm [1] of 52% and a pest or weed control at 0.45 ppm [2] of 3%. It also gave a pest or weed control at 1.35 ppm [2] of 80%.

`CO/C=C(/C(=O)OC)c1ccccc1Oc1cc(Oc2ccccc2C#N)ncn1` [Azoxystrobin, methyl (αE)-2-[[6-(2-cyanophenoxy)-4-pyrimidinyl]oxy]-α-(methoxymethylene)benzeneacetate] was tested, and the pest or weed control at 0.6 ppm [1, 3] was 10%, the pest or weed control at 1.8 ppm [1, 4] was 14% and the pest or weed control at 5.6 ppm [1, 5] was 20%. It also gave a pest or weed control at 0.6 ppm [2, 6] of 3%, a pest or weed control at 1.8 ppm [2, 7] of 3% and a pest or weed control at 5.6 ppm [2, 8] of 33%.

In the case of `Fc1cc(Oc2cc(C(F)(F)F)ccn2)ccc1CCNc1ncnc2c(F)ccc(F)c12` [B, (5,8-Difluoroquinazolin-4-yl)-{2-[2-fluoro-4-(4-trifluoromethylpyridin-2-yloxy)-phenyl]-ethyl}-amine], the pest or weed control at 1.5 g/ha ([1]; 3DC SEPTTR) is reported as 41% and the pest or weed control at 1.5 g/ha ([2]; 1DP SEPTTR) is reported as 36%.

`Cn1cc(C(=O)Nc2ccc(F)cc2-c2ccc(Cl)c(Cl)c2)c(C(F)F)n1` [Bixafen, N-(3′,4′-dichloro-5-fluoro[1,1′-biphenyl]-2-yl)-3-(difluoromethyl)-1-methyl-1H-pyrazole-4-carboxamide] showed a pest or weed control at 0.2 ppm ([1]; 3DC SEPTTR) of 6%, a pest or weed control at 0.6 ppm [1, 3] of 4% and a pest or weed control at 1.8 ppm [1, 4] of 14%. For the same molecule, the pest or weed control at 0.2 ppm ([2]; 1DP SEPTTR) was 3%, the pest or weed control at 0.6 ppm [2, 6] was 7% and the pest or weed control at 1.8 ppm [2, 7] was 12%.

In the case of `O=C(Nc1ccccc1-c1ccc(Cl)cc1)c1cccnc1Cl` [Boscalid, 2-chloro-N-(4′-chloro[1,1′-biphenyl]-2-yl)-3-pyridinecarboxamide], the pest or weed control at 1.8 ppm [1, 4] is reported as 12%, the pest or weed control at 5.6 ppm [1, 5] is reported as 34% and the pest or weed control at 1.8 ppm [2, 7] is reported as 5%. It also gave a pest or weed control at 5.6 ppm [2, 8] of 30%.

`N#Cc1c(Cl)c(Cl)c(Cl)c(C#N)c1Cl` [Chlorothalanil, 2,4,5,6-tetrachloro-1,3-benzenedicarbonitrile] was tested, and the pest or weed control at 13.5 ppm ([1]; 3DC SEPTTR, application rate 13.5 ppm) was 4%, the pest or weed control at 42 ppm ([1]; 3DC SEPTTR, application rate 42 ppm) was 4% and the pest or weed control at 125 ppm ([1]; 3DC SEPTTR, application rate 125 ppm) was 6%. For the same molecule, the pest or weed control at 13.5 ppm ([2]; 1DP SEPTTR, application rate 13.5 ppm) was 0%, the pest or weed control at 42 ppm ([2]; 1DP SEPTTR, application rate 42 ppm) was 2% and the pest or weed control at 125 ppm ([2]; 1DP SEPTTR, application rate 125 ppm) was 0%.

In the case of `Cc1ccc(COc2ncc(F)c(N)n2)cc1` [Compound IA], the pest or weed control at 0.03 ppm ([1]; 3DC SEPTTR, application rate 0.03 ppm) is reported as 2%, the pest or weed control at 0.1 ppm ([1]; 3DC SEPTTR, application rate 0.1 ppm) is reported as 4% and the pest or weed control at 0.3 ppm ([1]; 3DC SEPTTR, application rate 0.3 ppm) is reported as 10%. It also gave a pest or weed control at 0.9 ppm ([1]; 3DC SEPTTR, application rate 0.9 ppm) of 44%, a pest or weed control at 2.8 ppm ([1]; 3DC SEPTTR, application rate 2.8 ppm) of 94% and a pest or weed control at 8.3 ppm ([1]; 3DC SEPTTR, application rate 8.3 ppm) of 100%. It also gave a pest or weed control at 0.03 ppm ([2]; 1DP SEPTTR, application rate 0.03 ppm) of 2%, a pest or weed control at 0.1 ppm ([2]; 1DP SEPTTR, application rate 0.1 ppm) of 3% and a pest or weed control at 0.3 ppm ([2]; 1DP SEPTTR, application rate 0.3 ppm) of 0%. The pest or weed control at 0.9 ppm ([2]; 1DP SEPTTR, application rate 0.9 ppm) was 22%, the pest or weed control at 2.8 ppm ([2]; 1DP SEPTTR, application rate 2.8 ppm) was 85% and the pest or weed control at 8.3 ppm ([2]; 1DP SEPTTR, application rate 8.3 ppm) was 98%.

Molecule `Nc1nc(OCc2ccc(F)cc2)ncc1F` [Compound IB] has a pest or weed control at 1.5 g/ha ([1]; 3DC SEPTTR) of 74% and a pest or weed control at 1.5 g/ha ([2]; 1DP SEPTTR) of 46%.

`Fc1ccc([C@]2(Cn3cncn3)O[C@H]2c2ccccc2Cl)cc1` [Epoxiconazole, re1-1-[[(2R,3S)-3-(2-chlorophenyl)-2-(4-fluorophenyl)oxiranyl]methyl]-1H-1,2,4-triazole] was tested, and the pest or weed control at 0.125 ppm ([1]; 3DC SEPTTR, application rate 0.125 ppm) was 18%, the pest or weed control at 0.375 ppm ([1]; 3DC SEPTTR, application rate 0.375 ppm) was 46% and the pest or weed control at 0.125 ppm ([2]; 1DP SEPTTR, application rate 0.125 ppm) was 2%. It also gave a pest or weed control at 0.375 ppm ([2]; 1DP SEPTTR, application rate 0.375 ppm) of 83%.

`CC(C)C1C2CCC1c1c(NC(=O)c3cn(C)nc3C(F)F)cccc12` (stereo not drawn) [Isopyrazam, 3-(difluoromethyl)-1-methyl-N-[1,2,3,4-tetrahydro-9-(1-methylethyl)-1,4-methanonaphthalen-5-yl]-1H-pyrazole-4-carboxamide] was tested, and the pest or weed control at 0.6 ppm [1] was 10%, the pest or weed control at 1.8 ppm [1] was 18% and the pest or weed control at 0.6 ppm [2] was 15%. It also gave a pest or weed control at 1.8 ppm [2] of 23%.

Work on `CC(C)CC(C)c1sccc1NC(=O)c1cn(C)nc1C(F)(F)F` (stereo not drawn) [Penthiopyrad, N-[2-(1,3-dimethylbutyl)-3-thienyl]-1-methyl-3-(trifluoromethyl)-1H-pyrazole-4-carboxamide] yielded a pest or weed control at 0.2 ppm ([1]; 3DC SEPTTR) of 8%, a pest or weed control at 0.6 ppm [1, 3] of 4% and a pest or weed control at 1.8 ppm [1, 4] of 4%. For the same molecule, the pest or weed control at 0.2 ppm ([2]; 1DP SEPTTR) was 2%, the pest or weed control at 0.6 ppm [2, 6] was 10% and the pest or weed control at 1.8 ppm [2, 7] was 17%.

For `CCCN(CCOc1c(Cl)cc(Cl)cc1Cl)C(=O)n1ccnc1` [Prochloraz, N-propyl-N-[2-(2,4,6-trichlorophenoxy)ethyl]-1H-imidazole-1-carboxamide], the pest or weed control at 1.8 ppm [1] was 24%, the pest or weed control at 5.6 ppm [1] was 22% and the pest or weed control at 1.8 ppm [2] was 10%. For the same molecule, the pest or weed control at 5.6 ppm [2] was 33%.

`OC(Cc1ccccc1Cl)(Cn1[nH]cnc1=S)C1(Cl)CC1` (stereo not drawn) [Prothioconazole, 2-[2-(1-chlorocyclopropyl)-3-(2-chlorophenyl)-2-hydroxypropyl]-1,2-dihydro-3H-1,2,4-triazole-3-thione] gave a pest or weed control at 0.6 ppm [1, 3] of 10%, a pest or weed control at 1.8 ppm [1, 4] of 8% and a pest or weed control at 5.6 ppm [1, 5] of 20%. The pest or weed control at 0.6 ppm [2, 6] was 2%, the pest or weed control at 1.8 ppm [2, 7] was 2% and the pest or weed control at 5.6 ppm [2, 8] was 25%.
